Literature values in US20220347399A1, “SYSTEMS AND METHODS OF USING AN ULTRASONIC FOGGER TO DISTRIBUTE AN ANTISEPTIC SOLUTION” (Wonder Spray, LLC, priority 2021, published 2022).

Experiments:
E. coli [1] = conditions: 50 mM (2.6 ppm) HOCl, within 5 minutes
E. coli [2] = conditions: 50 mM (2.6 ppm) HOCl, within 5 minutes; remark: listed apart in the source
f2 RNA = conditions: f2 capsid proteins could still adsorb to the host
[3] = inhalation of vaporized HOCl

## OCl [HOCl, Hypochlorous acid]
E. coli [1]
  inhibition of the growth of E. coli: completely inhibited
E. coli [2]
  inhibition of DNA synthesis: ninety-six
f2 RNA
  inactivation of naked f2 RNA versus RNA in intact phage: inactivated naked f2 RNA at the same rate as RNA in intact phage
[3]
  adverse effects on inhaling the vaporized form: no adverse effects
